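1) Cells in 96-well plates. 2) Compound, 48 h, 5 concentrations. 3) Linear interpolation between surrounding doses. 4) Unreached endpoint = highest concentration. Here, GI50 denotes the concentration required for 50% inhibition of growth. At the TGI there is no net growth.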
Tests used:
Assay in all cases: NCI anticancer screen, dose series, 48 h
SK-MEL-2 melanoma = system: SK-MEL-2 melanoma
SK-MEL-5 melanoma = system: SK-MEL-5 melanoma
HCC-2998 colon = system: HCC-2998 colon
OVCAR-4 ovarian = system: OVCAR-4 ovarian
EKVX NSCLC = system: EKVX NSCLC
HCT-116 colon = system: HCT-116 colon
DU-145 prostate = system: DU-145 prostate
SR leukemia = system: SR leukemia
NCI-H226 lung = system: NCI-H226 lung
MOLT-4 leukemia = system: MOLT-4 leukemia

Row | SMILES | GI50 (SK-MEL-2 melanoma) [µM] | TGI (SK-MEL-2 melanoma) [µM] | GI50 (SK-MEL-5 melanoma) [µM] | TGI (SK-MEL-5 melanoma) [µM] | GI50 (HCC-2998 colon) [µM] | TGI (HCC-2998 colon) [µM] | GI50 (OVCAR-4 ovarian) [µM] | TGI (OVCAR-4 ovarian) [µM] | GI50 (EKVX NSCLC) [µM] | TGI (EKVX NSCLC) [µM] | GI50 (HCT-116 colon) [nM] | TGI (HCT-116 colon) [µM] | GI50 (DU-145 prostate) [µM] | TGI (DU-145 prostate) [µM] | GI50 (SR leukemia) [µM] | TGI (SR leukemia) [µM] | GI50 (NCI-H226 lung) [µM] | TGI (NCI-H226 lung) [µM] | GI50 (MOLT-4 leukemia) [µM] | TGI (MOLT-4 leukemia) [µM]
1 | COc1cc2c(c(OC)c1OC)-c1ncc3c(OC)c(OC)c(OC)cc3c1C2 | 30.8 | 74.4 | 16 | 30.5 | 16.1 | 30.7 | 49.6 | > 100 | 32.7 | > 100 | 27800 | > 100 | 29.6 | > 100 | – | – | – | – | – | –
2 | Cc1nn[n-]n1.N.N.N.N.N.[Cl-].[Co+3] | > 100 | > 100 | > 100 | > 100 | > 100 | > 100 | > 100 | > 100 | > 100 | > 100 | > 100000 | > 100 | – | – | > 100 | > 100 | > 100 | > 100 | > 100 | > 100
3 | O=c1c2cc(F)ccc2sc2c(N3CCNCC3)nc3ccc(F)cc3c12 | 1.84 | 3.53 | 1.73 | 3.11 | 1.74 | 3.4 | 1.83 | 3.48 | 1.62 | 3.04 | 1630 | 3.21 | 1.68 | 3.09 | – | – | 1.53 | 3.03 | – | –
4 | O=c1/c(=C/c2ccccc2[N+](=O)[O-])sc2nc3ccccc3n12 | – | > 46.4 | – | > 46.4 | – | > 46.4 | – | > 46.4 | – | > 100 | – | > 46.4 | – | – | – | 25 | – | > 46.4 | – | > 46.4
5 | CC1=CC(=O)CC2(C)CC[C@@H]3C[C@]12OC3(C)C (some centres undefined) | – | > 100 | – | > 100 | – | > 100 | – | > 100 | – | > 100 | – | > 100 | – | – | – | > 100 | – | > 100 | – | > 100
6 | COC(=O)c1cc2c3ccccc3n3c(=O)c4cc5ccc(N(S(=O)(=O)c6ccc(C)cc6)S(=O)(=O)c6ccc(C)cc6)cc5nc4c(n1)c23 | 25.9 | > 100 | > 100 | > 100 | > 100 | > 100 | > 100 | > 100 | 53.6 | > 100 | – | – | > 100 | > 100 | – | – | 33.8 | > 100 | 28.6 | 64.5
7 | CC1/C=C/[C@@]2(C)CCC(C(C)(C)O)C2C(O)C[C@](C)(O)/C=C/C1 (some centres undefined) | – | > 100 | – | > 100 | – | > 100 | – | > 100 | – | > 100 | – | > 100 | – | – | – | > 100 | – | 52 | – | > 100
8 | CC(C)(C)c1cc(C(O)(C(F)(F)F)C(F)(F)F)c2c(c1)C(C(F)(F)F)(C(F)(F)F)OC(C)(C(C)(C)C)N2 (centres undefined) | – | 17.7 | – | 4.7 | – | 93.6 | – | > 100 | – | 22.4 | – | 13.4 | – | – | – | 8.45 | – | 8.53 | – | 7.96
9 | CC1=Nc2c(ccc3c2C(=O)c2ccccc2C3=O)NC(c2cccc3c2CCC3)C1 (centres undefined) | – | > 100 | – | > 100 | – | > 100 | – | > 100 | – | > 100 | – | > 100 | – | – | – | > 100 | – | > 100 | – | > 100
10 | COc1ccc(NC(=O)CC2SC(=Nc3ccccc3C)NC2=O)c([N+](=O)[O-])c1 (centres undefined) | – | > 100 | – | – | – | > 100 | – | > 100 | – | – | – | > 100 | – | – | – | > 100 | – | > 100 | – | > 100
11 | CCCCCCCCOC(=O)CC[C@@H](C)[C@H]1CC[C@H]2[C@@H]3[C@H](OC(=O)CCN)C[C@@H]4C[C@H](OC(=O)CCN)CC[C@]4(C)[C@H]3C[C@H](OC(=O)CCN)[C@]12C | 4.88 | 18.7 | 19.4 | 51.7 | 13.8 | 39 | 6.31 | 28.5 | – | – | 2430 | 5.43 | 3.4 | 9.7 | – | – | 13 | 44.8 | – | –
12 | Cc1ccc(NC(=O)CCc2nc(N)nc(N)c2-c2ccccc2)cc1C | – | > 100 | – | > 100 | – | > 100 | – | > 100 | – | > 100 | – | > 100 | – | – | – | > 100 | – | > 100 | – | > 100
13 | N#Cc1ccccc1C(Cl)(Cl)c1cnccn1 | – | > 100 | – | 87.3 | – | > 100 | – | > 100 | – | > 100 | – | – | – | – | – | > 100 | – | > 100 | – | 69.7
14 | COc1ccc(C(c2c(O)c3ccccc3n(-c3ccccc3)c2=O)c2c(O)c3ccccc3n(-c3ccccc3)c2=O)cc1 | – | > 100 | – | > 100 | – | > 100 | – | > 100 | – | > 100 | – | > 100 | – | – | – | > 100 | – | > 100 | – | > 100
15 | COc1ccc(OC)c(NC(=O)CCC/C(CC(=O)c2ccc(O)c(OC)c2)=N\Nc2nnc(C)n2N)c1 | – | > 100 | – | > 100 | – | > 100 | – | > 100 | – | > 100 | – | – | – | – | – | > 100 | – | > 100 | – | > 100

— PubChem BioAssay (NCI)
